Patent publication US9222093B2, “Two-way, portable riboswitch mediated gene expression control device” (THE UNIVERSITY OF HONG KONG, priority 2011, dated 2015)

Assays:
ON-lacI riboswitch = experiment: β-galactosidase assay of lacZ in cells carrying ON-lacI riboswitch and intact lacZ (theophylline arm of two-way control); assay type: cell-based, E. coli MG1655
Source text: (§1) The loxP-cat-loxP selectable cassette was inserted immediately after the stop codon of the lacZ gene on the MG1655 chromosome using recombineering methods. Next, the lacZ-loxP-cat-loxP cassette was PCR amplified and inserted (in frame) immediately prior to the stop codon of the target gene on the chromosome. The inserted lacZ fragment started from the 8th codon of the lacZ gene, and was co-transcribed and translated with the fused genes. The expression of gene-lacZ fusions was quantified using a β-galactosidase assay. Levels of β-galactosidasewere calculated using the following formula: units (U)=[…]
ON-lacI riboswitch 302 was incorporated into the chromosome upstream from intact lad gene (i.e., not fused with lacZ). The LacI protein represses expression of lacZ so that ON riboswitch 302 indirectly switches off lacZ in response to theophylline.
Two-way control was verified by determining β-galactosidase levels of the cells carrying both ON-lacI riboswitch 302 and an intact lacZ gene locus. Theophylline and IPTG regulated lacZ in opposite directions in a concentration-dependent manner (graph 312, FIG. 3D). The effective concentration range of theophylline was 100-1600 μM. […] When IPTG was added to the medium containing 1600 μM theophylline, lacZ was derepressed. The effective range of IPTG was 0.16-40 μM.

lacI-lacZ fusion = experiment: β-galactosidase assay of lacI-lacZ translational fusion; assay type: cell-based, E. coli MG1655; conditions: E. coli mutant containing ON-lacI riboswitch; with vs without theophylline
Source text: as §1
To engineer an ON-riboswitch of the lacI gene, riboswitch cassette 302, cat-aptamer-linker-random sequence, was integrated upstream of the ribosomal binding site of lacI-lacZ usion 304 on the chromosome using standard recombineering methods (FIG. 3A).
The resulting mutant collection was grown on X-gal plates 306 in the absence of theophylline. Approximately 2000 colonies were screened for color. Two white clones were identified. […]

rpoS gene locus = experiment: Acid survival of ON-lacI-rpoS strain (pH 2.0, 2 hours); assay type: cell-based, E. coli
Source text: The ON-lacI-LacIbs cassette (2500 bp) from the genome of the strain carrying the ON riboswitch of lacI is amplified using […]. Cassette 602 is composed of the cat gene, the ON-lacI riboswitch, the lacI gene, and the lacI-lacZ intergenic region containing two LacIbs. The cat gene facilitates integration of this cassette immediately upstream of any target gene via recombineering. The riboswitch cassette was inserted upstream of the ribosomal binding site of rpoS gene locus […] (FIG. 6A). Next, the native lacI was deleted from this strain, generating a new mutant strain, ON-lacI-rpoS. This strain was used to test whether rpoS gene locus 606 could be controlled by the theophylline-responsive and LacI-repressible regulation cassette 602. Since rpoS is required for acid resistance, survival of strain […] under acidic conditions was assayed. Overnight cultures were treated with acid (pH 2.0) for 2 hours, and then serially diluted in neutral medium. After culturing overnight, colony forming units (CFU) of acid-treated and untreated cells were determined Acid survival (%) was calculated using the formula: Acid survival (%)=100×(CFU of treated/CFU of untreated).

ON-crp strain = experiment: Motility of ON-crp strain on semisolid motility plates; assay type: cell-based, E. coli MG1655; conditions: theophylline ligand added; increased with higher theophylline concentrations
Procedure: The motility phenotype of the ON-crp strain was assayed to further confirm the effectiveness of the ON-riboswitch.

CsrB locus = experiment: Autoaggregation and biofilm formation of ON-lacI strain harboring pLacIb-CsrB; assay type: cell-based, E. coli
Source text: CsrB locus 706 has previously been cloned into a high copy vector (plasmid) 704. Two LacIbs 112 were inserted around the transcriptional start site to place expression of CsrB locus 706 under the control of ON-lacI riboswitch 302. Since one LacIb is after the transcriptional start site, the resulting CsrB differs slightly from the native one by the extra 21 nt-sequence (i.e. LacIb). […] This CsrB-carrying vector 704 was introduced into the ON-lacI strain, and autoaggregation and biofilm formation were examined.
To measure autoaggregation, overnight cultures were diluted 1:500 and incubated at 37° C., with shaking at 220 rpm, in liquid LB medium. When cells aggregated (visualized macroscopically by the clumping or ‘fluffing’ of cells in liquid cultures), 100 μl of each cell suspension was transferred to flat-bottom 96-well plates (Iwaki, Tokyo, Japan) and the images of the cell aggregates were captured by scanning. To better visualize the cell aggregates, 1 μl of crystal violet (0.1%) was added to each cell suspension immediately prior to image capture. Cellular autoaggregation was also examined microscopically. Cell suspensions were spread on a microscope slide, heat-fixed, stained with DAPI (4′6-diamidino-2-phenylindol), and imaged using a fluorescence stereomicroscope SZX12 (Olympus, Tokyo, Japan) with DAPI filter sets.
Biofilms were formed on polystyrene, flat-bottom 96-well microtiter plates (Iwaki, Tokyo, Japan). 200 μl of each cell suspension (10^5 cells/ml) was transferred into each well of a microtiter plate, and incubated for 24 h at 37° C. in a shaker at 75 rpm. Resulting biofilms were washed thrice with PBS and air dried. Then, biofilms were stained with […] of 0.4% aqueous crystal violet solution for 15 min. Next, biofilms were washed three times with sterile distilled water and immediately destained with 200 μl of 95% ethanol. After 30 min of destaining, 100 μl of destaining solution was transferred to a new well and measured with a microtiter plate reader (SpectraMAX®340 Tunable Microplate Reader; Molecular Devices Ltd.) at 595 nm.

ON-lacI-rpoS cells = experiment: Extracellular acetate assimilation; assay type: cell-based, E. coli
Source text: (§2) Bacterial cells switch from rapid growth during which they produce and excrete acetate (dissimilation) in the presence of abundant nutrients to slower growth supported by the import and utilization of the excreted acetate (assimilation) when glucose is exhausted. This physiological event is defined as an acetate switch, a survival response allowing cells to compete successfully during carbon starvation. It was previously reported that RpoS positively regulates consumption of acetate by activating the expression of acetyl-coenzyme A synthetase enzyme (Acs). However, the opposite results were obtained with ON-lacI-rpoS construction provided herein. […] When grown in the presence of theophylline (2 mM) and absence of IPTG, rpoS expression was shut off and accordingly, acetate assimilation was accelerated (FIG. 8A). […] The enhanced acetate assimilation was also observed with the newly constructed rpoS gene locus null mutant, shown in graph 804 (FIG. 8B). […] It is therefore apparent that RpoS represses acetate assimilation.

wild type strain = experiment: Extracellular acetate assimilation, wild type strain; assay type: cell-based, E. coli; conditions: data not shown
Source text: as §2

LacI repressor protein = biological target: T1, LacI repressor protein (Escherichia coli, UniProt P03023); experiment: β-galactosidase assay of lacZ in cells carrying ON-lacI riboswitch and intact lacZ (IPTG arm of two-way control); assay type: cell-based, E. coli MG1655; conditions: medium containing 1600 μM theophylline
T1 construct: ON-lacI riboswitch 302 was incorporated into the chromosome upstream from intact lad gene (i.e., not fused with lacZ); endogenous in cells; host or cells: E. coli MG1655 derivative with ON-lacI riboswitch on the chromosome and intact lacZ locus
T1 sequence (P03023 whole entry, the tested form may be a part): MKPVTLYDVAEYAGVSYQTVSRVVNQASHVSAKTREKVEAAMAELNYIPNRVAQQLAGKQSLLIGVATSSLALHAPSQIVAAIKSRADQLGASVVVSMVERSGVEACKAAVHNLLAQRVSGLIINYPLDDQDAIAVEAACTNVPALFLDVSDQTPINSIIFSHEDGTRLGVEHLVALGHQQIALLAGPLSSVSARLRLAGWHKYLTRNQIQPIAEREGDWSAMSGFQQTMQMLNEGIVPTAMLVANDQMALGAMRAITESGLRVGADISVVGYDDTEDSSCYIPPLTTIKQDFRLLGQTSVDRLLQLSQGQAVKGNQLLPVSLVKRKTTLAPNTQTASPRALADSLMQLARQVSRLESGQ
Source text: as §1
ON-lacI riboswitch 302 makes two-way gene regulation possible because the Lad repressor protein can be inactivated by isopropyl β-D-1-thiogalactopyranoside (IPTG). Thus, adding theophylline to the culture medium switches on lacI translation, and transcriptionally represses the target genes of LacI. In contrast. IPTG inactivates LacI by binding to the protein and derepresses transcription of the target genes.
Two-way control was verified by determining β-galactosidase levels of the cells carrying both ON-lacI riboswitch 302 and an intact lacZ gene locus. Theophylline and IPTG regulated lacZ in opposite directions in a concentration-dependent manner (graph 312, FIG. 3D). The effective concentration range of theophylline was 100-1600 μM. […]

[1] = in the presence of theophylline

Row | SMILES | lacZ expression in the presence of theophylline (ON-lacI riboswitch; ON-lacI combined with LacIbs upstream from lacZ) | effective concentration range of theophylline (lacZ regulation) (ON-lacI riboswitch; cells carrying ON-lacI riboswitch and intact lacZ, repression, saturation above the range) [µM] | lacZ regulation at theophylline concentrations less than 100 μM (ON-lacI riboswitch; theophylline less than 100 μM) | LacI levels in the presence of the ligand (lacI-lacZ fusion) | acid survival (rpoS gene locus; 1600 μM theophylline) | motility (ON-crp strain) | autoaggregation (CsrB locus; [1]) | biofilm formation (CsrB locus; [1]) | acetate assimilation (ON-lacI-rpoS cells; theophylline 2 mM, absence of IPTG) | effect on acetate assimilation in the wild type strain (wild type strain) | effective range of IPTG (lacZ derepression) (LacI repressor protein) [µM] | acid survival (rpoS gene locus; 40 μM IPTG in medium containing 1600 μM theophylline) | autoaggregation and biofilm formation (CsrB locus; IPTG added together with theophylline) | acetate assimilation (ON-lacI-rpoS cells; IPTG 1 mM added to the theophylline medium)
1 | Cn1c(=O)c2[nH]cnc2n(C)c1=O [theophylline] | almost completely repressed | 100 to 1600 | little regulation | one fold-increase | comparable to that of an rpoS null mutant | gained motility | negative with respect to autoaggregation | low levels of biofilms | accelerated | Neither theophylline nor IPTG had any effect |  |  |  | 
2 | CC(C)S[C@@H]1O[C@H](CO)[C@H](O)[C@H](O)[C@H]1O [IPTG, isopropyl β-D-1-thiogalactopyranoside] |  |  |  |  |  |  |  |  |  | Neither theophylline nor IPTG had any effect | 0.16 to 40 | restored to the wild-type levels | restored | restored to the wild-type levels
